The supplement of paper PMC10307832

Key:
Assay in all cases: relative viability (nuclei count vs DMSO), 5 days (fraction); higher = more cells survive
[1] = compound: CCOC(=O)CCNc1cc(N2CCc3ccccc3CC2)nc(-c2ccccn2)n1 [GSK-J4] + CS(=O)(=O)CCNCc1ccc(-c2ccc3ncnc(Nc4ccc(OCc5cccc(F)c5)c(Cl)c4)c3c2)o1 [Lapatinib] (partner 2 µM)
Procedure, shortened: (§1)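 Lung cancer cell lines were seeded in 1536-well plates and dosed by pin tool the next day, with either a single drug or a fixed anchor-drug dose combined with five library-drug doses (not always all listed) spaced in √10 steps. Five days later, one step fixed the cells and stained their nuclei (final 0.05% Triton X-100, 1% formaldehyde, 1 ug/ml Hoechst), and nuclei were counted on 4× images. Relative viability is the nuclei count in treated wells divided by the count in vehicle wells, and each value is the median of duplicate plates.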

[2] = compound: CCOC(=O)CCNc1cc(N2CCc3ccccc3CC2)nc(-c2ccccn2)n1 [GSK-J4] + Cc1nc(Nc2ncc(C(=O)Nc3c(C)cccc3Cl)s2)cc(N2CCN(CCO)CC2)n1 [Dasatinib] (partner 0.075 µM)
Procedure, shortened: as §1

[3] = compound: CN1CCC(CC1)OC2=CC(=C(C=C2)NC3=NC=C4C(=N3)N(C(=O)N4C)C5CCCC5)OC [AZ3146] + C[C@@H](Oc1cc(-c2cnn(C3CCNCC3)c2)cnc1N)c1c(Cl)ccc(F)c1Cl [Crizotinib] (partner 1 µM)
Procedure, shortened: as §1

[4] = compound: CN1CCC(CC1)OC2=CC(=C(C=C2)NC3=NC=C4C(=N3)N(C(=O)N4C)C5CCCC5)OC [AZ3146] + O=C(c1cc(Cc2n[nH]c(=O)c3ccccc23)ccc1F)N1CCN(C(=O)C2CC2)CC1 [Olaparib] (partner 8 µM)
Procedure, shortened: as §1

Cell Line | relative viability ([1]; first compound 0.5 µM) | relative viability ([1]; first compound 1.581 µM) | relative viability ([1]; first compound 5 µM) | relative viability ([1]; first compound 15.81 µM) | relative viability ([1]; first compound 50 µM) | relative viability ([2]; first compound 0.5 µM) | relative viability ([2]; first compound 1.581 µM) | relative viability ([2]; first compound 5 µM) | relative viability ([2]; first compound 15.81 µM) | relative viability ([2]; first compound 50 µM) | relative viability ([3]; first compound 0.08 µM) | relative viability ([3]; first compound 0.253 µM) | relative viability ([3]; first compound 0.8 µM) | relative viability ([3]; first compound 2.53 µM) | relative viability ([3]; first compound 8 µM) | relative viability ([4]; first compound 0.08 µM) | relative viability ([4]; first compound 0.253 µM) | relative viability ([4]; first compound 0.8 µM) | relative viability ([4]; first compound 2.53 µM) | relative viability ([4]; first compound 8 µM)
201T | 0.988 | 1.08 | 0.983 | 1.04 | 0.992 | 0.576 | 0.6 | 0.639 | 0.391 | 0.348 | 1.02 | 1.03 | 1 | 1.06 | 1.02 | 0.855 | 0.829 | 0.827 | 0.874 | 0.805
A549 | 0.952 | 1.03 |  | 1.1 | 0.902 |  |  |  |  |  | 0.655 | 0.777 | 0.453 | 0.0847 | 0.0598 | 0.203 | 0.268 | 0.419 | 0.43 | 0.269
A-427 | 1.05 |  | 0.913 | 0.976 | 0.847 | 0.609 |  | 0.363 | 0.655 | 0.274 | 0.877 | 0.927 | 0.869 | 0.804 | 0.444 | 0.689 | 0.813 | 0.758 | 0.794 | 0.652
ABC-1 | 1.03 | 1.17 | 1.21 | 0.935 | 1.05 | 0.47 | 0.546 | 0.465 | 0.598 | 0.297 | 0.852 | 1.38 | 1.03 | 1.07 | 0.452 | 0.744 | 0.707 | 0.714 | 0.78 | 0.606
BEN | 0.657 | 0.622 |  | 0.764 | 0.635 | 0.398 | 0.362 |  | 0.304 | 0.284 |  | 0.869 | 0.97 | 0.822 | 0.829 |  | 1.07 | 1.12 | 0.899 | 0.917
CAL-12T | 0.586 | 0.489 | 0.778 | 0.55 | 0.391 | 0.431 | 0.477 | 0.465 | 0.405 | 0.335 | 0.507 | 0.72 | 0.595 | 0.733 | 0.247 | 0.733 | 0.822 | 0.717 | 0.658 | 0.6
COR-L23 | 0.881 | 0.917 |  | 0.927 | 0.615 | 0.477 | 0.393 |  | 0.409 | 0.413 | 0.506 | 0.649 | 0.622 | 0.502 | 0.407 | 0.28 | 0.363 | 0.353 | 0.361 | 0.324
COR-L 105 | 0.398 | 0.317 | 0.35 | 0.319 | 0.35 | 0.338 | 0.38 | 0.276 | 0.315 | 0.326 | 0.756 | 0.745 | 0.508 | 0.518 | 0.332 | 0.654 | 0.717 | 0.503 | 0.696 | 0.648
Calu-6 | 1 | 1.11 | 1.05 | 1.03 | 1.04 |  |  |  |  |  | 0.715 | 0.763 | 0.701 | 0.465 | 0.256 | 0.55 | 0.505 | 0.535 | 0.551 | 0.5
ChaGo-K-1 |  |  |  |  |  | 0.618 | 0.501 | 0.461 | 0.592 | 0.518 | 1 | 1.26 | 0.951 | 0.593 | 0.328 | 0.352 | 0.436 | 0.361 | 0.421 | 0.357
EBC-1 | 0.199 | 0.244 | 0.243 | 0.235 | 0.209 |  |  |  |  |  | 0.192 | 0.213 | 0.173 | 0.194 | 0.166 | 0.699 | 0.71 | 0.671 | 0.634 | 0.397
EKVX | 0.216 | 0.205 | 0.261 | 0.197 | 0.171 | 0.535 |  | 0.569 |  | 0.43 | 0.957 | 1.12 | 1.06 | 1.1 | 0.365 | 0.798 | 0.828 | 0.811 | 1.07 | 0.798
EMC-BAC-2 | 0.925 | 0.928 | 0.802 | 0.824 | 0.806 | 0.317 | 0.333 | 0.191 | 0.339 | 0.258 | 0.679 | 0.696 | 0.884 | 0.763 | 0.731 | 0.407 | 0.522 | 0.5 | 0.531 | 0.432
EPLC-272H | 0.981 |  | 0.919 | 0.89 | 0.679 | 0.418 | 0.327 | 0.262 | 0.357 | 0.282 | 0.78 | 0.843 | 1.02 | 1.14 | 0.975 | 0.892 | 0.841 | 0.878 | 0.914 | 0.643
H3255 | 0.238 | 0.255 | 0.271 | 0.206 | 0.493 | 0.361 | 0.364 | 0.416 | 0.369 | 0.386 | 0.841 | 0.884 | 0.886 | 1.03 | 0.442 | 0.498 | 0.526 | 0.605 | 0.564 | 0.564
HARA | 0.729 | 0.706 |  | 0.699 | 0.554 | 0.267 |  |  | 0.24 | 0.258 | 0.983 | 1.03 | 1.03 | 0.72 | 0.206 | 0.618 | 0.926 | 0.818 | 0.924 | 0.841
HCC-15 | 0.827 | 0.436 | 0.724 | 0.754 | 0.644 | 0.624 |  | 0.526 | 0.476 | 0.393 | 0.83 | 0.863 | 0.768 | 0.677 | 0.445 | 0.618 | 0.737 | 0.726 | 0.725 | 0.648
HCC-44 | 0.964 | 0.647 | 0.909 | 1.07 | 0.957 |  |  |  |  |  | 0.779 | 0.791 | 0.724 | 0.796 | 0.668 | 0.996 | 0.991 | 1.06 | 0.964 | 0.942
